The text below walks through data of patent US20240325298A1, “COMPOSITIONS, METHODS AND SYSTEMS FOR AEROSOL DRUG DELIVERY” (AstraZeneca Pharmaceuticals LP, priority 2021, published 2024).

The nature of data set [1]: NGI aerosol performance stability data after storage of the MDI (valve down, protected). In kind it is physicochemical. As to conditions: stored valve down and protected at 25° C./60% RH.
The nature of data set [2]: Particle size distribution by laser diffraction (optical diameter). In kind it is physicochemical. From the text: When referred to herein, the term “optical diameter” indicates the size of a particle as measured by the Fraunhofer diffraction mode using a laser diffraction particle size analyzer equipped with a dry powder dispenser (e.g., Sympatec GmbH, Clasthal-Zellerfeld, Germany).
Suspending particles were manufactured by spray drying an emulsion of PFOB (perfluorooctyl bromide) and water stabilized by DSPC (1,2-Distearoyl-sn-Glycero-3-Phosphocholine). […] The particle size distribution of the suspending particles was determined by laser diffraction.
Active agent particles formed of budesonide, 16,17-(butylidenebis(oxy))-11,21-dihydroxy-(11-β,16-α)-pregna-1,4-diene-3,20-dione, were formed by micronizing budesonide using a jet mill. The particle size distribution of the budesonide (BD) was determined by laser diffraction.

The mark [3] stands for this setting: budesonide/formoterol co-suspension in HFO-1234ze(E).

As to `CCCC1O[C@@H]2C[C@H]3[C@@H]4CCC5=CC(=O)C=C[C@]5(C)[C@H]4[C@@H](O)C[C@]3(C)[C@]2(C(=O)CO)O1` (stereo partly drawn) [budesonide, 16,17-(butylidenebis(oxy))-11,21-dihydroxy-(11-β,16-α)-pregna-1,4-diene-3,20-dione], the “stability of the aPSD” value in data set [1] (budesonide/albuterol co-suspension in HFO-1234ze(E)) and in data set [1] (setting [3]) was “stable for twelve months” each time.

Regarding `C[N+]1(C)CCC(OC(=O)C(O)(c2ccccc2)C2CCCC2)C1.[Br-]` (stereo not drawn) [glycopyrrolate, Pyrrolidinium, 3-((cyclopentylhydroxyphenylacetyl)oxy)-1,1-dimethyl-, bromide], in data set [2], the “optical diameter that 50% by volume of the particles are smaller than” value (“optical diameter that 50% by volume” below) was “smaller than 2.1 μm” and the “optical diameter that 90% by volume of the particles are smaller than” value (shortened to “optical diameter that 90% by volume”) was “smaller than 5 μm”.

As to albuterol sulfate, in data set [2], the “optical diameter that 50% by volume” value was “smaller than 1.5 μm” and the “optical diameter that 90% by volume” value is “smaller than 3.3 μm”.

As for `COc1ccc(CC(C)NCC(O)c2ccc(O)c(NC=O)c2)cc1.O=C(O)/C=C/C(=O)O` (racemic) [formoterol fumarate, (±)-2-hydroxy-5-[(1RS)-1-hydroxy-2-[[(1RS)-2-(4-methoxyphenyl)-1-methylethyl]-amino]ethyl]formanilide fumarate], in data set [2], the “optical diameter that 50% by volume” value is “smaller than 1.6 μm” and the “optical diameter that 90% by volume” value was “smaller than 3.9 μm”.

For `CCCCCCCCCCCCCCCCCC(=O)OC[C@H](COP(=O)([O-])OCC[N+](C)(C)C)OC(=O)CCCCCCCCCCCCCCCCC` [DSPC, 1,2-Distearoyl-sn-Glycero-3-Phosphocholine], in data set [1] (setting [3]), the “stability of the aPSD” value was “stable for twelve months”.
